# Experiments:
# [1] = system: human peripheral blood mononuclear cells (PBMC); experiment: CTL induction by peptide from PBMC of HLA-A2-positive cancer patients and healthy individuals, IFN-γ against peptide-pulsed T2 cells (Example 6); format: cell-based; details: for INF-γ production: peptide-pulsed T2 cells; for Patients in whom peptide-specific HLA-A2-restricted CTL were induced from PBMC: sixteen HLA-A2-positive cancer patients
# Description: For six peptides (P21, P22, P24, P26, P30, and P32) with a purity of 95% or higher among peptides from P20 to P32 derived from gene 7 and CPSF among the tumor antigen peptide obtained in Example 4, the activity to induce CTL in vitro from human peripheral blood mononuclear cells (PBMC) was examined using IFN-γ production as an indicator. PBMC used was prepared from each peripheral blood of sixteen HLA-A2-positive cancer patients (4 patients with pancreatic cancer, seven patients with stomach cancer, and 5 patients with colon cancer) and six healthy individuals. Specifically, 1×10^5 PBMC was added to each well of 96-well U-bottom type microculture plate (Nunc Corp.) and incubated together with 10 μM of each of the above-described peptides in 200 μl culture medium. The culture medium consisted of 45% RPMI-1640, 45% AIM-V (Invitrogen Corp.,) 10% fetal calf serum (FCS), 100U/ml of human interleukin-2, and […] MEM nonessential amino acid solution (Invitrogen Corp.). At day 4 and day 7 after the start of culturing, half of the culture medium was removed and replaced with the above-described composition containing each corresponding peptide. At day 10 after the start of culturing, the cells were collected and washed, followed by reacting with T2 cells, which were pulsed with each corresponding peptide, to measure the amount of IFN-γ produced.
# [2] = system: OK-CTLp or OK-CTL clone; experiment: Recognition of peptide-pulsed T2 cells by OK-CTLp or OK-CTL clone (IFN-γ ELISA); format: cell-based, human
# [3] = system: Panc-1 pancreatic adenocarcinoma cell (HLA-A2); experiment: 6-h 51Cr-releasing test of peptide-stimulated PBMC against Panc-1 (Example 6); format: cell-based, human
# Description: Meanwhile, the above-described cells cultured for 10 days after stimulation by the peptide were further cultured for 10 days. The cytotoxicity of the obtained cells against the Panc-1 pancreatic adenocarcinoma cell (HLA-A2) was measured by the standard 6-h ^51Cr-releasing test in an E/T ratio of 10:1. The results obtained are presented as % specific lysis (table 7). Together with this step, cytotoxicity against SSTW-9 tumor cell as the HLA-A2^− tumor cell was measured to use as a background that was subtracted from the above-described result.
# [4] = PBMC of colon cancer patient 12
# [5] = PBMC of colon cancer patient 13
# [6] = PBMC of colon cancer patient 14
# [7] = PBMC of colon cancer patient 15
# [8] = PBMC of colon cancer patient 16
# [9] = PBMC of pancreatic cancer patient 1
# [10] = PBMC of pancreatic cancer patient 2
# [11] = PBMC of pancreatic cancer patient 3
# [12] = PBMC of pancreatic cancer patient 4
# [13] = PBMC of stomach cancer patient 5
# [14] = PBMC of stomach cancer patient 6
# [15] = PBMC of stomach cancer patient 7
# [16] = PBMC of stomach cancer patient 8
# [17] = PBMC of stomach cancer patient 9
# [18] = PBMC of stomach cancer patient 10
# [19] = PBMC of stomach cancer patient 11
# [20] = concentration of peptide 0.1 μM
# [21] = PBMC of colon cancer patient 14, Panc-1, E/T 10:1
Sequence,"INF-γ production [1, 4] [pg/mL]","INF-γ production [1, 5] [pg/mL]","INF-γ production [1, 6] [pg/mL]","INF-γ production [1, 7] [pg/mL]","INF-γ production [1, 8] [pg/mL]",INF-γ production ([1]; PBMC of healthy individual HD1) [pg/mL],INF-γ production ([1]; PBMC of healthy individual HD2) [pg/mL],INF-γ production ([1]; PBMC of healthy individual HD3) [pg/mL],INF-γ production ([1]; PBMC of healthy individual HD4) [pg/mL],INF-γ production ([1]; PBMC of healthy individual HD5) [pg/mL],INF-γ production ([1]; PBMC of healthy individual HD6) [pg/mL],"INF-γ production [1, 9] [pg/mL]","INF-γ production [1, 10] [pg/mL]","INF-γ production [1, 11] [pg/mL]","INF-γ production [1, 12] [pg/mL]","INF-γ production [1, 13] [pg/mL]","INF-γ production [1, 14] [pg/mL]","INF-γ production [1, 15] [pg/mL]","INF-γ production [1, 16] [pg/mL]","INF-γ production [1, 17] [pg/mL]",other results
"DMWTVIAPV (Designed peptide having an ability to activate HLA-A2 restricted Cytotoxic T lymphocytes) [Peptide P22, CPSF 534-542]",92,179,80,5,0,0,0,0,0,0,14,0,38,0,8,0,0,0,0,0,"INF-γ production [1, 18]: 0 pg/mL; INF-γ production [1, 19]: 0 pg/mL; Healthy individuals in whom CTL were induced from PBMC ([1]; six healthy individuals): 33%; Patients in whom peptide-specific HLA-A2-restricted CTL were induced from PBMC [1]: 38%; IFN-γ production [2, 20]: 254 pg/mL; IFN-γ production ([2]; concentration of peptide 1 μM): 1027 pg/mL; IFN-γ production ([2]; concentration of peptide 10 μM): 431 pg/mL; IFN-γ production ([2]; concentration of peptide 50 μM): 407 pg/mL; % specific lysis ([3]; PBMC of colon cancer patient 12, Panc-1, E/T 10:1): 28%; % specific lysis [3, 21]: 19%; % specific lysis ([3]; PBMC of pancreatic cancer patient 2, Panc-1, E/T 10:1, SSTW-9 background subtracted): 37%"
"LMLQNALTIM (LMLQNALTTM; Designed peptide having an ability to activate HLA-A2 restricted Cytotoxic T lymphocytes) [Peptide P30, Gene 7 1359-1368]",0,41,33,0,68,0,0,14,0,0,0,0,12,0,73,0,0,0,146,92,"INF-γ production [1, 18]: 46 pg/mL; INF-γ production [1, 19]: 0 pg/mL; Patients in whom peptide-specific HLA-A2-restricted CTL were induced from PBMC [1]: 44%; IFN-γ production [2, 20]: 88 pg/mL; IFN-γ production ([2]; concentration of peptide 1 μM): 7001 pg/mL; % specific lysis ([3]; PBMC of colon cancer patient 13, Panc-1, E/T 10:1): 12%; % specific lysis [3, 21]: 10%; % specific lysis ([3]; PBMC of pancreatic cancer patient 4, Panc-1, E/T 10:1): 11%; % specific lysis ([3]; PBMC of stomach cancer patient 8, Panc-1, E/T 10:1): 18%; % specific lysis ([3]; PBMC of stomach cancer patient 10, Panc-1, E/T 10:1): 26%"

# Reference: patent US7524930B2, “Tumor antigen” (Green Peptide Co., Ltd, priority 2003, dated 2009)
